Legend:
[1] = system: Hepa mouse hepatoma cells; experiment: DNA transfection, luciferase expression (pCIluc/DW921 complexes with crosslinker); format: cell-based; conditions: pCIluc 10 μg/mL, DW921 100 μg/mL, 48 h, average of two wells
Method: To a solution of plasmid DNA pCIluc (10 μg/mL, 0.075 mM in phosphate, 2.6 μg/μL pCIluc; prepared according to Danko et al. 1997) in 0.5 mL of 150 mM NaCl and 5 mM TAPS pH 9 was added 100 μg/mL DW921. The complexes were then reacted with glutaraldehyde, periodate oxidized phenyl glucoside (another crosslinker containing a labile bond), or periodate oxidized salicylic galactoside at 1, 2, 4, 8, or 16 μg/mL. The complexes were then added (200 μL) to wells containing Hepa mouse hepatoma cells in Dulbecco's modified Eagle's Media containing 10% fetal bovine serum. The cells were allowed to incubate for 48 h. The cells were then harvested and assayed for luciferase expression as previously reported. The amount of transfection was reported in relative light units and is the average transfection for two separate wells of cells.

[2] = Measurement of acetal hydrolysis kinetics (absorbance vs time in buffered solutions); format: physicochemical; conditions: formaldehyde-derived vs acetaldehyde-derived acetal
Source text: To illustrate the rate of cleavage of several example ortho carboxy phenol derived acetals, we synthesized the molecules 1-3 (shown in FIG. 2) and measured the rates of acetal hydrolysis for each at pH 5.2-7.3. • Acetal 1. R′, R=alkyl; and R1, R2, R3, R4=hydrogen • Acetal 2. R′, R=alkyl; R1, R4=hydrogen; R2=carboxyl (carbon-containing group); R3=hydroxyl (heteroatom) • Acetal 3. R′=alkyl; R, R2, R3, R4=hydrogen; and R1=carboxyl (carbon-containing group)
To determine the rate of acetal hydrolysis, compounds 1-3 were added to buffered solutions (pH 7-8 with 5 mM HEPES, or pH 5-7 with 5 mM acetate) at various pH values and the absorbance of the solution was measured as a function of time (λ=302 nm for 1 and 2 and 310 nm for 3). The rate constant was determined by determining the slope of the line derived from plotting ln[1−((A∞−At)/(A28−Ao))] as a function of time t, where A28 is absorbance after >3 hours of hydrolysis, At is the absorbance at time t, and Ao is the initial absorbance. The half-life of the hydrolysis equals ln[2] divided by the rate constant.

Structure (SMILES)	Relative Light Units (luciferase expression) ([1]; 2 μg/mL dialdehyde crosslinker) [Relative Light Units]	Relative Light Units (luciferase expression) ([1]; 4 μg/mL dialdehyde crosslinker)	Relative Light Units (luciferase expression) ([1]; 8 μg/mL dialdehyde crosslinker) [Relative Light Units]	rate of acetal hydrolysis relative to acetals derived from alkyl-substituted aldehydes (acetals 1 and 2) [2]
O=CCCCC=O [glutaraldehyde]	620	1,400 Relative Light Units	590	–
CC(C)[C@@H]1CC[C@@H](C)C[C@H]1OCOc1c(C(=O)O)cccc1C(=O)O [Acetal 3]	–	–	–	hydrolyze more slowly

Reference: patent US7348453B2, “Labile linkage for compound delivery to a cell” (Mirus Bio Corporation, priority 2003, dated 2008)
